Assay results published in PubChem BioAssay (NCI).
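96-well plates; 48 h exposure; 5 concentrations. Endpoints by linear interpolation between flanking doses. Not reached: highest tested concentration assigned. Abbreviation: GI50, concentration required for 50% inhibition of growth. Definition used: TGI = concentration required for complete inhibition of growth.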

Key:
Experiment in all cases: inhibition of tumour cell growth, NCI panel, 48 h
HCC-2998 colon = test system: HCC-2998 colon
NCI-H460 lung = test system: NCI-H460 lung
COLO 205 colon = test system: COLO 205 colon
SK-MEL-2 melanoma = test system: SK-MEL-2 melanoma
NCI-H522 lung = test system: NCI-H522 lung
TK-10 renal = test system: TK-10 renal
RPMI-8226 leukemia = test system: RPMI-8226 leukemia
NCI-H226 lung = test system: NCI-H226 lung
UACC-257 melanoma = test system: UACC-257 melanoma
A549 NSCLC = test system: A549 NSCLC
HCT-116 colon = test system: HCT-116 colon

Row | SMILES | GI50 (HCC-2998 colon) | TGI (HCC-2998 colon) | GI50 (NCI-H460 lung) | TGI (NCI-H460 lung) | GI50 (COLO 205 colon) | TGI (COLO 205 colon) | GI50 (SK-MEL-2 melanoma) | TGI (SK-MEL-2 melanoma) | GI50 (NCI-H522 lung) | TGI (NCI-H522 lung) | GI50 (TK-10 renal) | TGI (TK-10 renal) | GI50 (RPMI-8226 leukemia) | TGI (RPMI-8226 leukemia) | GI50 (NCI-H226 lung) | TGI (NCI-H226 lung) | TGI (UACC-257 melanoma) | TGI (A549 NSCLC) | TGI (HCT-116 colon)
1 | CN1CCN(Cn2nc(-c3cc(F)c(Cl)cc3Cl)oc2=S)CC1 | 55.9 µM | > 100 µM | 41.2 µM | > 100 µM | 23.6 µM | 51.6 µM | > 100 µM | > 100 µM | 90.1 µM | > 100 µM | 39.3 µM | > 100 µM | 22.7 µM | 50.9 µM | 34.4 µM | > 100 µM |  |  | 
2 | COc1cccc2c1C(=O)c1c(O)c3c(c(O)c1C2=O)CC(O)(C(C)=O)CC3O (configuration not stated) |  | 11.1 µM |  | 7.42 µM |  | 24.7 µM |  | 16.9 µM |  | 3.09 µM |  |  |  | 16.6 µM |  | 18.6 µM | 32.7 µM | 23.4 µM | 10.1 µM
3 | CN1C(=O)[C@@H]2[C@@H]3c4ccccc4N[C@@H]3c3[nH]c4ccccc4c3[C@@H]2C1=O |  | 40.3 µM |  | 31.4 µM |  | 36.5 µM |  | 33.1 µM |  |  |  | 77.6 µM |  | 47 µM |  | > 100 µM | 48.9 µM | 65.1 µM | 74.9 µM
4 | O=c1[nH]c(-c2ccc(Cl)cc2)cc2ccsc12 |  | 9.61 µM |  | > 100 µM |  | > 100 µM |  | > 100 µM |  | > 100 µM |  | 8.22 µM |  | 19.1 µM |  | > 100 µM | 7.87 µM | > 100 µM | > 100 µM
